Test results published in US8802597B2, “Herbicidal pyrimidines” (E I du Pont de Nemours and Company, priority 2003, dated 2014).

Legend:
Experiment in all cases: Test C pre/postemergence
Assay type in all cases: in vivo
[1] = system: yellow nutsedge (Cyperus esculentus); conditions: for Nutsedge, Yellow plant response rating: scale 0 to 100 (0 no effect, 100 complete control)
Summary of the method: (§1)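 Injury scored visually 12–14 days after application on 0–100 scale (100 = complete control), relative to controls. Compounds, formulated with surfactant in non-phytotoxic solvent, applied to soil at planting (pre) or to 1- to 4-leaf plants 2–18 cm tall (post) in greenhouse.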

[2] = system: Surinam grass (Brachiaria decumbens); conditions: for Surinam Grass plant response rating: scale 0 to 100 (0 no effect, 100 complete control)
Summary of the method: as §1

[3] = system: pigweed (Amaranthus retroflexus); conditions: for Pigweed plant response rating: scale 0 to 100 (0 no effect, 100 complete control)
Summary of the method: as §1

[4] = system: velvetleaf (Abutilon theophrasti); conditions: for Velvetleaf plant response rating: scale 0 to 100 (0 no effect, 100 complete control)
Summary of the method: as §1

[5] = system: cocklebur (Xanthium strumarium); conditions: for Cocklebur plant response rating: scale 0 to 100 (0 no effect, 100 complete control)
Summary of the method: as §1

[6] = system: common (oilseed) sunflower (Helianthus annuus); conditions: Preemergence
Summary of the method: as §1

[7] = system: woolly cupgrass (Eriochloa villosa); conditions: for Cupgrass, Woolly plant response rating: scale 0 to 100 (0 no effect, 100 complete control)
Summary of the method: as §1

[8] = system: kochia (Kochia scoparia); conditions: for Kochia plant response rating: scale 0 to 100 (0 no effect, 100 complete control)
Summary of the method: as §1

[9] = system: morningglory (Ipomoea coccinea); conditions: for Morningglory plant response rating: scale 0 to 100 (0 no effect, 100 complete control)
Summary of the method: as §1

[10] = system: giant foxtail (Setaria faberii); conditions: for Foxtail, Giant plant response rating: scale 0 to 100 (0 no effect, 100 complete control)
Summary of the method: as §1

[11] = system: crabgrass (Digitaria sanguinalis); conditions: for Crabgrass plant response rating: scale 0 to 100 (0 no effect, 100 complete control)
Summary of the method: as §1

[12] = system: johnsongrass (Sorghum halepense)
Summary of the method: as §1

[13] = Postemergence, 250 g ai/ha, scale 0 to 100
[14] = Postemergence, 500 g ai/ha, scale 0 to 100
[15] = Preemergence, 62 g ai/ha, scale 0 to 100, 0 no effect, 100 complete control
[16] = Preemergence, 125 g ai/ha, scale 0 to 100
[17] = Preemergence, 250 g ai/ha, scale 0 to 100
[18] = Preemergence, 500 g ai/ha, scale 0 to 100
[19] = 62 g ai/ha, scale 0 to 100, 0 no effect, 100 complete control
[20] = Preemergence, 16 g ai/ha, scale 0 to 100, 0 no effect, 100 complete control
[21] = Preemergence, 31 g ai/ha, scale 0 to 100, 0 no effect, 100 complete control

## CNN=Cc1nc(C2CC2)nc(N)c1Br [Compound 49]
[1]; Postemergence, 62 g ai/ha
  Nutsedge, Yellow plant response rating: 0
[1]; Postemergence, 125 g ai/ha
  Nutsedge, Yellow plant response rating: 0
[1]; [13]
  Plant response rating, Nutsedge, Yellow: 0
[1]; [14]
  Plant response rating, Nutsedge, Yellow: 0
[1]; [15]
  Plant response rating, Nutsedge, Yellow: 0
[1]; [16]
  Plant response rating, Nutsedge, Yellow: 0
[1]; [17]
  Plant response rating, Nutsedge, Yellow: 0
[1]; [18]
  Plant response rating, Nutsedge, Yellow: 0
[2]; Postemergence, 62 g ai/ha
  Surinam Grass plant response rating: 0
[2]; Postemergence, 125 g ai/ha
  Surinam Grass plant response rating: 0
[2]; [13]
  Plant response rating, Surinam Grass: 40
[2]; [14]
  Plant response rating, Surinam Grass: 45
[2]; [15]
  Plant response rating, Surinam Grass: 0
[2]; [16]
  Plant response rating, Surinam Grass: 15
[2]; [17]
  Plant response rating, Surinam Grass: 40
[2]; [18]
  Plant response rating, Surinam Grass: 65
[3]; Postemergence, 62 g ai/ha
  Pigweed plant response rating: 65
[3]; Postemergence, 125 g ai/ha
  Pigweed plant response rating: 80
[3]; [13]
  Plant response rating, Pigweed: 95
[3]; [14]
  Plant response rating, Pigweed: 95
[3]; [15]
  Plant response rating, Pigweed: 85
[3]; [16]
  Plant response rating, Pigweed: 90
[3]; [17]
  Plant response rating, Pigweed: 100
[3]; [18]
  Plant response rating, Pigweed: 100
[4]; Postemergence, 62 g ai/ha
  Velvetleaf plant response rating: 45
[4]; Postemergence, 125 g ai/ha
  Velvetleaf plant response rating: 70
[4]; [13]
  Plant response rating, Velvetleaf: 75
[4]; [14]
  Plant response rating, Velvetleaf: 80
[4]; [15]
  Plant response rating, Velvetleaf: 15
[4]; [16]
  Plant response rating, Velvetleaf: 70
[4]; [17]
  Plant response rating, Velvetleaf: 90
[4]; [18]
  Plant response rating, Velvetleaf: 100
[5]; Postemergence, 62 g ai/ha
  Cocklebur plant response rating: 75
[5]; Postemergence, 125 g ai/ha
  Cocklebur plant response rating: 95
[5]; [13]
  Plant response rating, Cocklebur: 95
[5]; [14]
  Plant response rating, Cocklebur: 95
[5]; [15]
  Plant response rating, Cocklebur: 20
[5]; [16]
  Plant response rating, Cocklebur: 95
[5]; [17]
  Plant response rating, Cocklebur: 95
[5]; [18]
  Plant response rating, Cocklebur: 100
[6]; [19]
  Plant response rating, Sunflower: 15
[6]; 125 g ai/ha, scale 0 to 100
  Plant response rating, Sunflower: 75
[6]; 250 g ai/ha, scale 0 to 100
  Plant response rating, Sunflower: 100
[6]; 500 g ai/ha, scale 0 to 100
  Plant response rating, Sunflower: 100
[7]; Postemergence, 62 g ai/ha
  Cupgrass, Woolly plant response rating: 0
[7]; Postemergence, 125 g ai/ha
  Cupgrass, Woolly plant response rating: 15
[7]; [13]
  Plant response rating, Cupgrass, Woolly: 60
[7]; [14]
  Plant response rating, Cupgrass, Woolly: 65
[7]; [15]
  Plant response rating, Cupgrass, Woolly: 0
[7]; [16]
  Plant response rating, Cupgrass, Woolly: 0
[7]; [17]
  Plant response rating, Cupgrass, Woolly: 20
[7]; [18]
  Plant response rating, Cupgrass, Woolly: 25
[8]; Postemergence, 62 g ai/ha
  Kochia plant response rating: 20
[8]; Postemergence, 125 g ai/ha
  Kochia plant response rating: 45
[8]; [13]
  Plant response rating, Kochia: 95
[8]; [14]
  Plant response rating, Kochia: 100
[8]; [15]
  Plant response rating, Kochia: 100
[8]; [16]
  Plant response rating, Kochia: 100
[8]; [17]
  Plant response rating, Kochia: 100
[8]; [18]
  Plant response rating, Kochia: 100
[9]; Postemergence, 62 g ai/ha
  Morningglory plant response rating: 50
[9]; Postemergence, 125 g ai/ha
  Morningglory plant response rating: 70
[9]; [13]
  Plant response rating, Morningglory: 80
[9]; [14]
  Plant response rating, Morningglory: 100
[9]; [15]
  Plant response rating, Morningglory: 90
[9]; [16]
  Plant response rating, Morningglory: 95
[9]; [17]
  Plant response rating, Morningglory: 100
[9]; [18]
  Plant response rating, Morningglory: 100
[10]; Postemergence, 62 g ai/ha
  Foxtail, Giant plant response rating: 0
[10]; Postemergence, 125 g ai/ha
  Foxtail, Giant plant response rating: 0
[10]; [13]
  Plant response rating, Foxtail, Giant: 0
[10]; [14]
  Plant response rating, Foxtail, Giant: 0
[10]; [15]
  Plant response rating, Foxtail, Giant: 0
[10]; [16]
  Plant response rating, Foxtail, Giant: 0
[10]; [17]
  Plant response rating, Foxtail, Giant: 0
[10]; [18]
  Plant response rating, Foxtail, Giant: 65
[11]; Postemergence, 62 g ai/ha
  Crabgrass plant response rating: 0
[11]; Postemergence, 125 g ai/ha
  Crabgrass plant response rating: 65
[11]; [13]
  Plant response rating, Crabgrass: 75
[11]; [14]
  Plant response rating, Crabgrass: 95
[11]; [15]
  Plant response rating, Crabgrass: 95
[11]; [16]
  Plant response rating, Crabgrass: 95
[11]; [17]
  Plant response rating, Crabgrass: 95
[11]; [18]
  Plant response rating, Crabgrass: 100
[12]; Postemergence, 125 g ai/ha, scale 0 to 100 (0 no effect, 100 complete control)
  Johnsongrass plant response rating: 20
[12]; [13]
  Plant response rating, Johnsongrass: 35
[12]; [14]
  Plant response rating, Johnsongrass: 70
[12]; [15]
  Plant response rating, Johnsongrass: 45
[12]; [16]
  Plant response rating, Johnsongrass: 65
[12]; [17]
  Plant response rating, Johnsongrass: 80
[12]; [18]
  Plant response rating, Johnsongrass: 85

## CCCOC(=O)c1nc(C2CC2)nc(N)c1Cl [Compound 75]
[1]; [20]
  Plant response rating, Nutsedge, Yellow: 0
[1]; [21]
  Plant response rating, Nutsedge, Yellow: 0
[1]; [15]
  Plant response rating, Nutsedge, Yellow: 0
[2]; [20]
  Plant response rating, Surinam Grass: 0
[2]; [21]
  Plant response rating, Surinam Grass: 0
[2]; [15]
  Plant response rating, Surinam Grass: 55
[3]; [20]
  Plant response rating, Pigweed: 70
[3]; [21]
  Plant response rating, Pigweed: 75
[3]; [15]
  Plant response rating, Pigweed: 80
[4]; [20]
  Plant response rating, Velvetleaf: 5
[4]; [21]
  Plant response rating, Velvetleaf: 60
[4]; [15]
  Plant response rating, Velvetleaf: 85
[5]; [20]
  Plant response rating, Cocklebur: 55
[5]; [21]
  Plant response rating, Cocklebur: 90
[5]; [15]
  Plant response rating, Cocklebur: 95
[5]; [16]
  Plant response rating, Cocklebur: 100
[6]; 16 g ai/ha, scale 0 to 100, 0 no effect, 100 complete control
  Plant response rating, Sunflower: 50
[6]; 31 g ai/ha, scale 0 to 100, 0 no effect, 100 complete control
  Plant response rating, Sunflower: 70
[6]; [19]
  Plant response rating, Sunflower: 100
[7]; [20]
  Plant response rating, Cupgrass, Woolly: 0
[7]; [21]
  Plant response rating, Cupgrass, Woolly: 0
[7]; [15]
  Plant response rating, Cupgrass, Woolly: 60
[7]; [16]
  Plant response rating, Cupgrass, Woolly: 60
[8]; [20]
  Plant response rating, Kochia: 70
[8]; [21]
  Plant response rating, Kochia: 80
[8]; [15]
  Plant response rating, Kochia: 100
[8]; [16]
  Plant response rating, Kochia: 100
[9]; [20]
  Plant response rating, Morningglory: 50
[9]; [21]
  Plant response rating, Morningglory: 90
[9]; [15]
  Plant response rating, Morningglory: 95
[9]; [16]
  Plant response rating, Morningglory: 100
[10]; [20]
  Plant response rating, Foxtail, Giant: 0
[10]; [21]
  Plant response rating, Foxtail, Giant: 0
[10]; [15]
  Plant response rating, Foxtail, Giant: 0
[10]; [16]
  Plant response rating, Foxtail, Giant: 10
[11]; [20]
  Plant response rating, Crabgrass: 0
[11]; [21]
  Plant response rating, Crabgrass: 10
[11]; [15]
  Plant response rating, Crabgrass: 20
[11]; [16]
  Plant response rating, Crabgrass: 60
[12]; [20]
  Plant response rating, Johnsongrass: 0
[12]; [21]
  Plant response rating, Johnsongrass: 0
[12]; [15]
  Plant response rating, Johnsongrass: 50
[12]; [16]
  Plant response rating, Johnsongrass: 55
